From the METLIN SMRT retention time set (Domingo-Almenara et al. 2019)

Test: gradient 5% acetonitrile 3 min, to 50% in 2 min, to 85% in 15 min, held 3 min, 100 µL/min
Settings: column: Zorbax Extend-C18 2.1 x 50 mm; eluents: water / acetonitrile, 0.1% formic acid
Summary of the method: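 Pure standards were run in mixtures of ~100 molecules by HPLC coupled to a quadrupole time-of-flight mass spectrometer. The column was a Zorbax Extend-C18 (2.1 × 50 mm, 1.8 μm) at 100 μL/min, with water and acetonitrile each containing 0.1% formic acid, in positive and negative ionization mode. Dead and dwell volumes were 40 μL and 900 μL. Retention time was taken from computationally picked adduct peaks, each manually inspected, with data collected over 3 months.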

Structure (SMILES) | RP-LC retention time
N#C/C(=C\c1ccc2ccccc2c1)C(=O)c1ccccc1 | 1090 s
Cc1occc1C(=O)N1CCCn2ccnc2C1c1cnn(C)c1 (configuration not stated) | 573 s
COc1cccc(-c2noc(Cn3c(=O)n(C(C)C)c(=O)c4ccccc43)n2)c1 | 1110 s
CC12NC(Cc3ccccc31)c1ccccc12 (configuration not stated) | 670 s
CCn1nc(N2CCCC(N)C2)ccc1=O (configuration not stated) | 497 s
N#Cc1ccccc1NC(=O)C(=O)NCc1ccccn1 | 572 s
CCc1cccc(N2C(=O)CN(S(C)(=O)=O)CC2(C)C(=O)NCc2ccc(C)cc2)c1 (configuration not stated) | 905 s
NCC(O)C1CCCCCCC1 (configuration not stated) | 633 s
O=C(Cn1c(-c2cccs2)nc2ccccc21)NC1CC1 | 596 s
OCc1cc2c(cn1)[nH]c1ccccc12 | 637 s
CCN1CCCC1CNC(=O)C1c2cc(OC)c(OC)cc2C(=O)N(C)C1c1ccc(OC)cc1 (configuration not stated) | 611 s
Cc1ccc(NC(=O)N2CCN(c3cnn4c(C)nnc4c3)CC2)c(C)c1 | 634 s
CC(C)N1CCC2(CC1)CN(C(=O)NCc1ccco1)Cc1ccccc1O2 | 650 s
O=C(NCCc1nc2cccnc2n1Cc1ccccc1)NCc1ccco1 | 678 s
Cc1sc2ccn(C)c(=O)c2c1C(=O)NCCN1CCc2ccccc2C1 | 687 s
CC(=O)c1sc(NC(=O)c2ccn(C)n2)nc1C | 630 s
Cn1cc(S(=O)(=O)N2CCC(C(=O)NCc3ccccn3)CC2)cc1C(=O)N1CCCC1 | 583 s
CCn1cnc2c1CN(S(=O)(=O)c1ccc(C#N)cc1)CC2 | 616 s
Cc1cc(C)n(CCNC(=O)C2(c3cccs3)CCCC2)n1 | 736 s
Cc1ccccc1-c1nnc(CSc2nnc(NC(=O)C3CC3)s2)o1 | 822 s
COc1ccc(Cl)cc1NC(=O)c1cc(C)n2nccc2n1 | 942 s
CCOC(=O)C1CCN(C(=O)C2CCN(c3nnc(-c4ccc(OC)cc4)o3)CC2)CC1 | 792 s
Cc1cc(Br)ccc1NC(=O)Cn1cnc(C)c(C)c1=O | 673 s

Structure (SMILES) | RP-LC retention time
O=C(NC1CCCCCC1)C1CCc2sc(C(=O)N3CCOCC3)cc2C1 (configuration not stated) | 789 s
Cc1cc(C)cc(Nc2nc(C)cc(=O)n2CC(=O)Nc2cccc(C#N)c2)c1 | 811 s
CNC(=O)N1CCCN(C)c2ccccc21 | 484 s
CN(Cc1ccccc1)C(=O)C1c2ccccc2C(=O)N(C)C1c1cccs1 (configuration not stated) | 877 s
CCN1CCCn2cc(S(=O)(=O)N(CC)c3ccccc3)cc2C1=O | 780 s
CCc1nc2cc(-c3noc(COc4ccc(OC)cc4)n3)ccc2o1 | 1070 s
Cc1cccc(-c2ncccc2CNS(=O)(=O)c2cccc(C#N)c2)c1 | 700 s
Cn1ncc2c3ccccc3n(CC(=O)NCCCN3CCCCC3)c2c1=O | 580 s
O=[N+]([O-])c1ccc2c(c1)S(=O)c1ccccc1-2 (configuration not stated) | 782 s
CCc1ccc(-n2ncc3c(=O)n(Cc4nc(-c5ccc(Cl)cc5)no4)cnc32)cc1 | 1270 s
COC(=O)c1ncn2c1C(=O)N(Cc1cccc(C)c1)C(C)(C(=O)NCc1ccccc1)C2 (configuration not stated) | 759 s
Cc1nnc(C2CCCN(C(=O)CCc3c(C)noc3C)C2)s1 (configuration not stated) | 606 s
COc1ccc(CCC(=O)NCC(=O)Nc2nc3ccccc3[nH]2)cc1 | 639 s
CCOC(=O)CN1N=C(C(=O)N2CCC(C)CC2)S(=O)(=O)c2ccc(C)cc21 | 939 s
N#Cc1cccnc1N1CCN(c2ccccn2)CC1 | 590 s
COc1ccc(C)cc1NC(=O)N1CCC(CC(=O)N2CCCCC2)CC1 | 811 s
COCCNC(=O)c1nnn(Cc2ccc(Cl)cc2)c1-n1cccc1 | 890 s
Cc1cc(N2CCOCC2)nc(N2CCN(C(=O)CCC3CCCCC3)CC2)n1 | 714 s
CN(C)S(=O)(=O)c1ccc(-c2nc3ccccc3s2)cc1 | 578 s
COCC(=O)N1CCCc2ccc(NC(=O)c3cc(C)on3)cc21 | 680 s
Cn1nc(C2CCCN(C(=O)c3ccco3)C2)n(C2CCCC2)c1=O (configuration not stated) | 701 s
O=C1[C@H]2CN(Cc3cccc(Cl)c3F)C[C@H]2C(=O)N1CCc1ccccc1 | 992 s

Other lines, results leading:

RP-LC retention time | Structure (SMILES)
1220 s | COc1ccc(OC)c(NC(=O)Cn2c(-c3ccc(Cl)cc3)nc(C)cc2=O)c1
710 s | CC(C)OCCCNC(=O)CCc1nnc2c3cc(-c4ccc(F)cc4)nn3ccn12
849 s | Cc1ccc(Cl)cc1NC(=O)CSc1nc(N2CCCCC2)nc2ccccc12
1030 s | CSc1cccc(NC(=O)CSc2nnc3c4cc(-c5ccc(C)c(C)c5)nn4ccn23)c1
1180 s | O=C(COc1ccc2ccccc2c1)Nc1nc(-c2ccccc2)cs1
736 s | COC(=O)c1ccc2c(=O)n(-c3cc(OC)cc(OC)c3)c(N3CCC(C(N)=O)CC3)nc2c1
810 s | Fc1ccc(-c2nc(-c3ccc4nncn4c3)no2)cc1
814 s | O=C(CC(=O)Nc1ccc(F)cc1Cl)Nc1ccc2nc3n(c(=O)c2c1)CCCCC3
904 s | Cc1ccc(NC(=O)N2CCC(n3cnc4cc(Cl)ccc4c3=O)CC2)cc1F
946 s | Cc1nn(C(C)C(=O)NC2CCCCC2)c(=O)c2c(C)n(-c3ccccc3)nc12 (configuration not stated)
1200 s | Cc1cc(C)cc(NC(=O)C2CCCN(c3nccnc3Sc3ccccc3)C2)c1 (configuration not stated)
689 s | O=C(CC1CCCC1)Nc1cnc(-c2cccnc2)nc1
1250 s | O=C(Nc1cccc(Br)c1)C1CCCN(c2ncc(-c3ccc(F)cc3)cn2)C1 (configuration not stated)
612 s | Cc1ccc2c(=O)c3c([nH]c2c1C)CCN(CC(=O)Nc1ccccc1F)C3
1080 s | CCc1nc(-n2cccc2)sc1C(=O)Nc1ccc(F)cc1
1360 s | Cc1cc(C)c(S(=O)(=O)N2CCCC2c2nc(-c3ccc(Cl)cc3)no2)c(C)c1 (configuration not stated)
890 s | CCOc1ccc(CCNC(=O)C2CCCN2C(=O)OCc2ccccc2)cc1OCC (configuration not stated)
652 s | CC(=O)Nc1ccc(NC(=O)Cn2ccc3ccc(-c4nnc(C)o4)cc32)cc1
520 s | Cc1ccc(N2CCC(NC(=O)C3CCCCC3)C2=O)cc1 (configuration not stated)
736 s | NS(=O)(=O)c1ccc(NC(=O)CSc2ccc3ccccc3n2)cc1
1140 s | CCCN1C(=O)COc2ccc(-c3csc(NC(=O)c4ccc(Cl)cc4)n3)cc21
654 s | CCc1nc(-c2csc(S(=O)(=O)N3CCC(C(=O)NCc4ccccn4)CC3)c2)no1
659 s | O=C(Cn1c(N2CCCCC2)nc2ccccc2c1=O)NCc1cccc(Cl)c1
881 s | O=C(c1ccc(C(F)(F)F)cc1)N1CC2CN(S(=O)(=O)c3ccccc3)CC(C1)O2

RP-LC retention time | Structure (SMILES)
560 s | CCN1CCN(c2cc(C)c3cc(NC(=O)c4ccco4)ccc3n2)CC1
664 s | Cc1ccc(C)c(Nc2c(-c3ccc(O)cc3)nc3ncccn23)c1
1110 s | Cc1ccc(NC(=O)N2CCCC2c2nc(-c3cccc(Cl)c3)no2)cc1 (configuration not stated)
797 s | O=C(NC1CCN(c2cc(-c3cccs3)[nH]n2)C1)c1ccc(F)c(Cl)c1 (configuration not stated)
964 s | Cc1cccc(C)c1NS(=O)(=O)c1ccc(-c2c(C)noc2C)cc1
612 s | O=C(CCc1nnc2ccc(NCc3ccc(F)cc3)nn12)N1CCN(c2ccccn2)CC1
1220 s | Fc1ccc(CNc2ccc(-c3nc(-c4ccc(F)cc4)no3)cn2)cc1
662 s | Cc1c(Cl)cccc1NC(=O)CN1CCc2[nH]c3c(C)cc(F)cc3c(=O)c2C1
750 s | CC1(CNC(=O)COc2ccc(F)cc2)CCOCC1
834 s | CCOc1ccccc1NC(=O)N1CCc2cn(C)c3cccc(c23)C1
770 s | CCOC(=O)c1ccc(NC(=O)c2c(OCC)cc(=O)n3c2CCCC3)cc1
861 s | CCCCOc1ccc(NC(=O)Nc2ccc3c(c2)CN(C(=O)CC)CC3)cc1
809 s | O=C(c1ccc(F)cc1)N1CCC(CCNS(=O)(=O)c2ccc(F)cc2F)CC1
893 s | COc1ccc(NC(=O)COc2ccccc2)c2ccccc12
623 s | CCOC(=O)c1nc(N2CCN(Cc3ccccc3)CC2)c2ccccc2n1
1260 s | Cc1cc(S(=O)(=O)N2CCc3nc(-c4ccc(Cl)cc4)ncc3C2)ccc1F
754 s | Cc1cc(Cl)ccc1NC(=O)N1CC(Cc2nc(-c3cnccn3)no2)C1
764 s | O=C(CCC1CCCN(S(=O)(=O)c2ccc(F)cc2)C1)NC1CC1 (configuration not stated)
758 s | Cc1cc(N(C)C)nc(N2CCN(C(=O)c3ccc(-c4ccccc4)cc3)CC2)n1
650 s | O=C(Nc1nccs1)C1CC(=O)N(c2n[nH]c3cccc(F)c23)C1 (configuration not stated)
878 s | Cn1cc(CN2CCC(C(=O)NCCCN3CCc4ccccc4C3)CC2)c2cc(Cl)ccc21
1050 s | O=S(=O)(Cc1ccccc1)N1CCCC(Cc2noc(-c3ccccc3)n2)C1 (configuration not stated)
633 s | Cc1cnc(-c2ccccc2)n1CCNS(=O)(=O)c1cccc(F)c1
